Laboratory results taken from US10214492B2, “Heterocyclic inhibitors of MCT4” (Vettore, LLC, priority 2016, dated 2019).

Tests used:
[1] = Metabolic stability in rat liver microsomes (in vitro t1/2); type: in vitro ADME; details: for half-life at 2 µM: read-out: Rat microsome t1/2, min; for Rat microsome % 60 min: rat liver microsomes
Description: (§1) The following are assays that may be used to evaluate the metabolic stability of compounds of Formula (I) in human, rat, or mouse microsomes. The assays follow a common procedure recited below. 1. […] Two separated experiments were performed as follows. a) With NADPH: 10 μL of 20 mg/mL liver microsomes and 40 μL of 10 mM NADPH were added to the incubations. […] The final concentration of microsomes was 0.5 mg/mL. 3. The reaction was started with the addition of 4 μL of 200 μM control compound or test compound solutions. Verapamil was used as positive control in this study. The final concentration of test compound or control compound was 2 μM. 4. Aliquots of 50 μL were taken from the reaction solution at 0, 15, 30, 45 and 60 min. […] Samples were centrifuged at 3,220 g for 40 minutes. A 90 μL aliquot of the supernatant was mixed with 90 μL of ultra-pure H2O and then used for LC-MS/MS analysis. 5. Data analysis. All calculations were carried out using Microsoft Excel. Peak areas were determined from extracted ion chromatograms. The slope value, k, was determined by linear regression of the natural logarithm of the remaining percentage of the parent drug vs. incubation time curve. The in vitro half-life (in vitro t1/2) was determined from the slope value: in vitro t1/2=−(0.693)/k.

[2] = biological target: MCT1 (Homo sapiens (Human), UniProt P53985); experiment: Assay 4: MCT1-mediated lactate transport in BT20 breast cancer cells; type: cell-based; details: Table 27
Summary of the method: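 Transport started with 10 mM L-lactate on BCECF-loaded BT20 cells in Tyrode's Solution, pH 7.4. Dye loading: BCECF-AM ester (30 mM DMSO stock), 5 min at 37° C, then one wash.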

[3] = Metabolic stability in mouse liver microsomes (in vitro t1/2); type: in vitro ADME; details: for half-life at 2 µM: mouse liver microsomes 0.5 mg/mL, 2 μM compound, read-out: Mouse microsome t1/2, min; for Mouse microsome % 60 min: mouse liver microsomes
Description: as §1

[4] = Metabolic stability in human liver microsomes (in vitro t1/2); type: in vitro ADME; details: for half-life at 2 µM: human liver microsomes 0.5 mg/mL, 2 μM compound, read-out: Human microsome t1/2, min; for Human microsome % 60 min: human liver microsomes
Description: as §1

[5] = biological target: MCT4 (Homo sapiens (Human), UniProt O15427); experiment: Assay 3: MCT4-mediated lactate transport in MDA-MB-231 breast cancer cells; type: cell-based; details: MDA-MB-231 cells; lactate transport
Summary of the method: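 Read-out is BCECF fluorescence tracking the intracellular pH shift from MCT4-mediated lactate/H+ co-transport. Before measurement, MDA-MB-231 cells take up BCECF-AM for 5 min at 37° C, then are washed into Tyrode's Solution, pH 7.4.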

[6] = rat liver microsomes 0.5 mg/mL, 2 μM compound

Sequence of MCT4 (O15427 whole entry, looked up): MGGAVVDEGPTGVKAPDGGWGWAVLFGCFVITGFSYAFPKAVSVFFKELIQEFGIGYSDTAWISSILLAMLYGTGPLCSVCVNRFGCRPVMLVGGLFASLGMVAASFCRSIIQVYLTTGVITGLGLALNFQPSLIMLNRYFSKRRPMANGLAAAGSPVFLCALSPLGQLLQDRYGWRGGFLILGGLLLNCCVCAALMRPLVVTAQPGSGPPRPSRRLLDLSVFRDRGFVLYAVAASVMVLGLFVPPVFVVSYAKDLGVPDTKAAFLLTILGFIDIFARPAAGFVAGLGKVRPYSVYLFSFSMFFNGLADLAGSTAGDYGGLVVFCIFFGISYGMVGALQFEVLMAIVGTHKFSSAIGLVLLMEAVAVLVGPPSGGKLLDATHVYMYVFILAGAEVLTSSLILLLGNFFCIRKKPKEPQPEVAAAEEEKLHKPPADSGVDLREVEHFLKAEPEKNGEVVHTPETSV
Sequence of MCT4 (P35613 whole entry partner, looked up): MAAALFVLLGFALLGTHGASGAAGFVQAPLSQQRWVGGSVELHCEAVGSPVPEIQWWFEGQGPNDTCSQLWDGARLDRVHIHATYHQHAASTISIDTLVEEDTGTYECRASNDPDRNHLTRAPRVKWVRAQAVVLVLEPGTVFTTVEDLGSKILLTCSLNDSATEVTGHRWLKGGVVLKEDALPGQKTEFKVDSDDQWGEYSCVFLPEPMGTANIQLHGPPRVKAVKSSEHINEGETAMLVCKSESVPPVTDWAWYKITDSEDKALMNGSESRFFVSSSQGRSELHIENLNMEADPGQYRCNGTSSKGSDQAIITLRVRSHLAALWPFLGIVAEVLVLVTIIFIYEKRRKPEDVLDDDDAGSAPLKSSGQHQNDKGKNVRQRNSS
Sequence of MCT1 (P53985 whole entry): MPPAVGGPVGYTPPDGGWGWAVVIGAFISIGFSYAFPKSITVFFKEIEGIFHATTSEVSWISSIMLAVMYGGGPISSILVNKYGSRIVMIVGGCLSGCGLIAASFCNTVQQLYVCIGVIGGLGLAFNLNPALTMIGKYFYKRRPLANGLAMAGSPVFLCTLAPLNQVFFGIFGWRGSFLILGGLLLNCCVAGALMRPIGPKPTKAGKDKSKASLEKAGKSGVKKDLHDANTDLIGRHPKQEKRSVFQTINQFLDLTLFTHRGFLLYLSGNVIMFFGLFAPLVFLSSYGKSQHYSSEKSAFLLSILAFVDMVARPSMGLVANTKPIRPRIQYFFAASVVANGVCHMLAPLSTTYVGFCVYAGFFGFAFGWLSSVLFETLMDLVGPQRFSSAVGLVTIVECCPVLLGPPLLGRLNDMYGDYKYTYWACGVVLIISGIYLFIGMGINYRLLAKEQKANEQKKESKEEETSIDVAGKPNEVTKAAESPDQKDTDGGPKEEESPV
Sequence of MCT1 (P35613 140-385 partner): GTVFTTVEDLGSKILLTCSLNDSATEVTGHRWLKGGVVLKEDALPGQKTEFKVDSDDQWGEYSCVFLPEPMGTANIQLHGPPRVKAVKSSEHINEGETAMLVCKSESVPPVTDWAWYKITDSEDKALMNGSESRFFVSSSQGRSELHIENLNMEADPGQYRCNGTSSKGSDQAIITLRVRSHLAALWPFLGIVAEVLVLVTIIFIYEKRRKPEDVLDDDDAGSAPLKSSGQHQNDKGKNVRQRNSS

Row | SMILES | half-life at 2 µM [1, 6] [h] | Rat microsome % 60 min [1] [%] | IC50 [2] [nM] | half-life at 2 µM [3] [h] | Mouse microsome % 60 min [3] [%] | half-life at 2 µM [4] [h] | Human microsome % 60 min [4] [%] | IC50 [5] [nM] | Rat microsome t1/2, min [1, 6]
1 | CC[C@](C)(OCc1cc(-c2cccc(OC)c2)n(Cc2ccccc2Cl)n1)C(=O)O [Example 120, (2S)-2-([1-[(2-chlorophenyl)methyl]-5-(3-methoxyphenyl)-1H-pyrazol-3-yl]methoxy)-2-methylbutanoic Acid] | 0.85 | 44 | 22000 | 6.83 | 101 | 3.3 | 81 | 4 | –
2 | CC[C@@](C)(OCc1cc(-c2cccc(OC)c2)n(Cc2ccccc2Cl)n1)C(=O)O [Example 121, (2R)-2-([1-[(2-chlorophenyl)methyl]-5-(3-methoxyphenyl)-1H-pyrazol-3-yl]methoxy)-2-methylbutanoic Acid] | 1.43 | 61 | 21000 | 3.1 | 81 | 3.3 | 82 | 8 | –
3 | CC(C)COc1ncc(-c2cc(COC(C)(C)C(=O)O)nn2Cc2ccccc2Cl)s1 [Example 132, 2-([1-[(2-Chlorophenyl)methyl]-5-[2-(2-methylpropoxy)-1,3-thiazol-5-yl]-1H-pyrazol-3-yl]methoxy)-2-methylpropanoic acid] | 1.87 | 70 | 8200 | 1.63 | 64 | 1.93 | 70 | 8.6 | –
4 | CC(C)Oc1ncc(-c2cc(COC(C)(C)C(=O)O)nn2Cc2ccccc2Cl)s1 [Example 133, 2-([1-[(2-Chlorophenyl)methyl]-5-[2-(propan-2-yloxy)-1,3-thiazol-5-yl]-1H-pyrazol-3-yl]methoxy)-2-methylpropanoic acid] | 6.73 | 91 | > 33000 | 5.73 | 90 | 16.8 | 97 | 13 | –
5 | CC(C)Cc1ncc(-c2cc(COC(C)(C)C(=O)O)nn2Cc2ccccc2Cl)o1 [Example 134, 2-([1-[(2-Chlorophenyl)methyl]-5-[2-(2-methylpropyl)-1,3-oxazol-5-yl]-1H-pyrazol-3-yl]methoxy)-2-methylpropanoic acid] | 4.4 | 85 | – | 1.82 | 72 | 3.1 | 80 | – | –
6 | COc1cccc(-c2cc(COC(C)(C)C(=O)O)nn2Cc2ccccc2OC(C)C)c1 [Example 140, 2-([5-(3-Methoxyphenyl)-1-[[2-(propan-2-yloxy)phenyl]methyl]-1H-pyrazol-3-yl)methoxy)-2-methylpropanoic acid] | 0.983 | 48 | 16000 | 1.07 | 62 | 1.82 | 67 | 8.3 | –
7 | CC(C)(C)COc1cccc(-c2cc(COC(C)(C)C(=O)O)nn2-c2ccccc2N2CCC2)c1 [Example 155, 2-([1-[2-(Azetidin-1-yl)phenyl]-5-[3-(2,2-di-methylpropoxy)phenyl]-1H-pyrazol-3-yl]-methoxy)-2-methylpropanoic acid] | 1.22 | 70 | > 33000 | 0.633 | 37 | 0.867 | 62 | 0.32 | –
8 | CCn1ncc2ccc(-c3cc(COC(C)(C)C(=O)O)nn3-c3ccccc3Cl)cc21 [Example 157, 2-([1-(2-chlorophenyl)-5-(1-ethyl-1H-indazol-6-yl)-1H-pyrazol-3-yl]methoxy)-2-methylpropanoic acid] | 12.5 | 97 | – | 161 | 102 | 2.48 | 78 | – | –
9 | Cn1ncc2cccc(-n3nc(COC(C)(C)C(=O)O)cc3-c3cccc(OC4CCC4)c3)c21 [Example 166, 2-([5-(3-Cyclobutoxyphenyl)-1-(1-methyl-1H-indazol-7-yl)-1H-pyrazol-3-yl]-methoxy)-2-methylpropanoic acid] | – | 102 | 53000 | 3.23 | 82 | 21.1 | 94 | 5.9 | ∞
10 | Cn1ncc2cccc(-n3nc(COC(C)(C)C(=O)O)cc3-c3cccc(OCC4CCC4)c3)c21 [Example 168, 2-([5-[3-(cyclobutylmethoxy)phenyl]-1-(1-methyl-1H-indazol-7-yl)-1H-pyrazol-3-yl]-methoxy)-2-methylpropanoic acid] | 2.88 | 81 | – | 3.82 | 81 | 3.12 | 78 | 1.7 | –
11 | CC(C)(C)COc1cccc(-c2cc(COC(C)(C)C(=O)O)nn2-c2ccccc2Cl)c1 [Example 177, 2-([1-(2-chlorophenyl)-5-[3-(2,2-dimethyl-propoxy)phenyl]-1H-pyrazol-3-yl]methoxy)-2-methylpropanoic acid] | 10.6 | 90 | 35000 | 5.57 | 87 | 3.07 | 75 | 1.4 | –
12 | CC(C)(OCc1cc(-c2cccc(OCC3CCC3)c2)n(-c2ccccc2Cl)n1)C(=O)O [Example 178, 2-([1-(2-Chlorophenyl)-5-[3-(Cyclobutyl-methoxy)phenyl]-1H-pyrazol-3-yl]-methoxy)-2-methylpropanoic acid] | 2.42 | 72 | 27000 | 2.08 | 70 | 1.92 | 66 | 2.5 | –
13 | CC(C)(OCc1cc(-c2cccc(OC3CC3)c2)n(-c2ccc(F)cc2N2CCC2)n1)C(=O)O [Example 183, 2-([1-[2-(Azetidin-1-yl)-4-fluorophenyl]-5-(3-cyclopropoxyphenyl)-1H-pyraz.ol-3-yl]-methoxy)-2-methylpropanoic acid] | 1.68 | 71 | 86000 | 2.03 | 73 | 1.65 | 66 | 1.3 | –
14 | CCOc1cccc(-n2nc(COC(C)(C)C(=O)O)cc2-c2cc(OC)cc(OC)c2)c1 [Example 243, 2-([5-(3,5-Dimethoxyphenyl)-1-(3-ethoxyphenyl)-1H-pyrazol-3-yl]methoxy)-2-methylpropanoic acid] | 5.03 | 88 | 78000 | 21.7 | 97 | 7.22 | 88 | – | –
